Some results are limits rather than exact numbers.

This test concerns the target T1, Human complement C1s enzyme (Homo sapiens, UniProt P09871).
T1 construct: purified from human serum, Complement Technology, Inc; purchased Complement Technology, Inc; host or cells: human serum (plasma-derived native protein)
T1 sequence (P09871 438-688 limits assumed): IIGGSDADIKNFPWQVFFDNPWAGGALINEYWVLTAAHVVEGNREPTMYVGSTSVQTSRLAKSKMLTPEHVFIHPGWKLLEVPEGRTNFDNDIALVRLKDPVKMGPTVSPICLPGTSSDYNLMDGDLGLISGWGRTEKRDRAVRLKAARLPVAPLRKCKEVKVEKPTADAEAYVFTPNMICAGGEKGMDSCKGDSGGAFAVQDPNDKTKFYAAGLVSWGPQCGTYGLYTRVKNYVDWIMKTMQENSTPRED
T1 sequence (P09871 16-437 partner limits assumed): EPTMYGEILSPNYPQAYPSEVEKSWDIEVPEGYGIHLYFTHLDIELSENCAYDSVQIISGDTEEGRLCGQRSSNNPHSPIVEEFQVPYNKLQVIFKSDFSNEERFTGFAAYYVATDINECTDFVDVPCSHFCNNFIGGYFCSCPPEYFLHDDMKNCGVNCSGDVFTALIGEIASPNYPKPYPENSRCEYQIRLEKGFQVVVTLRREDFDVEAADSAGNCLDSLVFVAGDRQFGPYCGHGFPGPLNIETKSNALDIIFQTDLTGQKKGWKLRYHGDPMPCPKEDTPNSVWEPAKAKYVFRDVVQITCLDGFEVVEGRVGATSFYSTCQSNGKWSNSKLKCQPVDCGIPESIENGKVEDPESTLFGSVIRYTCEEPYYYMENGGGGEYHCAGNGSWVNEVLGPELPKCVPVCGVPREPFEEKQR
The experiment in a line: Human C1s enzyme assay. The format is biochemical. The note with it: human complement C1s enzyme 1.16 nM, substrate Z-L-Lys-SBzl, A405; read-out: IC50 (Stars). The procedure, abridged:
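Serum-purified human C1s (1.16 nM final) preincubated 5 min at room temperature with compound in 50 mM Tris, 1 M NaCl, pH 7.5. Z-L-Lys-SBzl and DTNB added at 100 μM each; A405 recorded every 30 s. IC50 from nonlinear regression of reaction rates versus compound concentration.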

As to `C[C@@H](Nc1cnc(-c2ccccn2)n(CC(=O)NCc2cc3cnccc3[nH]2)c1=O)c1ccc2oc3ccccc3c2c1` [Compound 323, (R)-N-((1H-pyrrolo[3,2-c]pyridin-2-yl)methyl)-2-(5-((1-(dibenzo[b,d]furan-2-yl)ethyl)-amino)-6-oxo-2-(pyridin-2-yl)-pyrimidin-1(6H)-yl)acetamide], the IC50 is below 100 nM.

On to `O=C(Cn1c(-c2ccc(OC3COC3)cc2)ncc(NCCCc2ccccc2)c1=O)NCc1cc2cnccc2[nH]1` [Compound 86, N-((1H-pyrrolo[3,2-c]pyridine-2-yl)methyl)-2-(2-(4-(oxetan-3-yloxy)phenyl)-6-oxo-5-((3-phenylpropyl)amino)pyrimidin-1(6H)-yl)acetamide], for which the IC50 is below 100 nM.

Turning to `C[C@@H](Nc1cnc(N2CCCC2)n(CC(=O)NCc2cc3cnccc3[nH]2)c1=O)c1ccc2oc3ccccc3c2c1` [Compound 367, (R)—N-((1H-pyrrolo[3,2-c]pyridin-2-yl)methyl)-2-(5-((1-(dibenzo[b,d]furan-2-yl)ethyl)amino)-6-oxo-2-(pyrrolidin-1-yl)pyrimidin-1(6H)-yl)acetamide], the IC50 was above 1000 nM.

On to `O=C(Cn1c(-c2ccccc2)ncc(NC(=O)c2ccc(-c3cnco3)cc2)c1=O)NCc1cc2cnccc2[nH]1` [Compound 93, N-(1-(2-(((1H-pyrrolo[3,2-c]pyridin-2-yl)methyl)amino)-2-oxoethyl)-6-oxo-2-phenyl-1,6-dihydropyrimidin-5-yl)-4-(oxazol-5-yl)benzamide], for which the IC50 was below 100 nM.

For the compound `O=C(Cn1c(-c2ccccc2)ncc(N2Cc3ccccc3C2)c1=O)NCc1cc2cnccc2[nH]1` [Compound 184, N-((1H-pyrrolo[3,2-c]pyridine-2-yl)methyl)-2-(5-(isoindolin-2-yl)-6-oxo-2-phenylpyrimidin-1(6H)-yl)acetamide], the IC50 is above 1000 nM.

With `Cc1cnc(N[C@@H](C)c2ccc3oc4ccccc4c3c2)c(=O)n1CC(=O)NCc1cc2cnccc2[nH]1` [Compound 316, (S)-N-((1H-pyrrolo[3,2-c]pyridin-2-yl)methyl)-2-(3-((1-(dibenzo[b,d]furan-2-yl)ethyl)-amino)-6-methyl-2-oxopyrazin-1(2H)-yl)acetamide], the IC50 is below 100 nM.

`C[C@@H](Nc1cnc(N2CCOCC2)n(CC(=O)NCc2cc3cnccc3[nH]2)c1=O)c1ccc(-c2ccccc2F)cc1` [Compound 421, (R)-N-((1H-pyrrolo[3,2-c]pyridin-2-yl)methyl)-2-(5-((1-(2′-fluoro-[1,1′-biphenyl]-4-yl)-ethyl)amino)-2-morpholino-6-oxopyrimidin-1(6H)-yl)acet-amide]: the IC50 was below 100 nM.

`C[C@@H](Nc1cnc(N2CCn3c(nnc3C(F)(F)F)C2)n(CC(=O)NCc2cc3cnccc3[nH]2)c1=O)c1ccc2oc3ccccc3c2c1` [Compound 313, (R)-N-((1H-pyrrolo[3,2-c]pyridin-2-yl)methyl)-2-(5-((1-(dibenzo[b,d]furan-2-yl)ethyl)-amino)-6-oxo-2-(3-(trifluoro-methyl)-5,6-dihydro-[1,2,4]triazolo[4,3-a]pyrazin-7(8H)-yl)pyrimidin-1(6H)-yl)acet-amide]: the IC50 was 100 to 1000 nM.

In the case of `C[C@@H](Nc1cnc(N2CCOCC2)n(CC(=O)NCc2cc3cnccc3[nH]2)c1=O)c1ccc2oc3ccccc3c2c1` [Compound 344, (R)-N-((1H-pyrrolo[3,2-c]pyridin-2-yl)methyl)-2-(5-((1-(dibenzo[b,d]furan-2-yl)ethyl)-amino)-2-morpholino-6-oxo-pyrimidin-1(6H)-yl)acetamide], the IC50 was below 100 nM.

With `Cc1cccc(-c2ncc(N[C@H](C)c3ccc4oc5ccccc5c4c3)c(=O)n2CC(=O)NCc2cc3cnccc3[nH]2)c1` [Compound 292, (R)-N-((1H-pyrrolo[3,2-c]pyr-idin-2-yl)methyl)-2-(5-((1-(dibenzo[b,d]furan-2-yl)ethyl)-amino)-6-oxo-2-(m-tolyl)pyr-imidin-1(6H)-yl)acetamide], the IC50 was below 100 nM.

On to `C[C@@H](Nc1cnc(-c2cccc(Cl)c2)n(CC(=O)NCc2cc3cnccc3[nH]2)c1=O)c1ccc2oc3ccccc3c2c1` [Compound 293, (R)-N-((1H-pyrrolo[3,2-c]pyr-idin-2-yl)methyl)-2-(2-(3-chlorophenyl)-5-((1-(dibenzo [b,d]furan-2-yl)ethyl)amino)-6-oxopyrimidin-1(6H)-yl)acet-amide], for which the IC50 is below 100 nM.

For the compound `O=C(Cn1cncc(NCc2cc(-c3ccccc3)ns2)c1=O)NCc1cc2cnccc2[nH]1` [Compound 484, N-((1H-pyrrolo[3,2-c]pyridin-2-yl)methyl)-2-(6-oxo-5-(((3-phenylisothiazol-5-yl)methyl)-amino)pyrimidin-1(6H)-yl)-acetamide], the IC50 is below 100 nM.

In the case of `C[C@@H]1CN(c2ncc(N[C@H](C)c3ccc4oc5ccccc5c4c3)c(=O)n2CC(=O)NCc2cc3cnccc3[nH]2)C[C@@H](C)O1` [Compound 355, N-((1H-pyrrolo[3,2-c]pyridin-2-yl)methyl)-2-(5-(((R)-1-(dibenzo[b,d]furan-2-yl)ethyl)-amino)-2-((2R,6R)-2,6-dimeth-ylmorpholino)-6-oxopyrimidin-1(6H)-yl)acetamide], the half-maximal inhibitory concentration (IC50) fell in the range of 100 to 1000 nM.

Consider `C[C@@H](Nc1cnc(N2C[C@H]3C[C@@H](C2)C3)n(CC(=O)NCc2cc3cnccc3[nH]2)c1=O)c1ccc2oc3ccccc3c2c1` [Compound 387, N-((1H-pyrrolo[3,2-c]pyridin-2-yl)methyl)-2-(2-((1S,5S)-3-azabicyclo[3.1.1]heptan-3-yl)-5-(((R)-1-(dibenzo[b,d]furan-2-yl)ethyl)amino)-6-oxopyr-imidin-1(6H)-yl)acetamide], for which the IC50 lay within 100 to 1000 nM.

In the case of `O=C(Cn1c(-c2ccc(S(F)(F)(F)(F)F)cc2)ncc(NCc2ccc3c(c2)-c2ccccc2C3(F)F)c1=O)NCc1cc2cnccc2[nH]1` [Compound 255, N-((1H-pyrrolo[3,2-c]pyridine-2-yl)methyl)-2-(5-(((9,9-difluoro-9H-fluoren-3-yl)methyl)amino)-6-oxo-2-(4-(pentafluoro-λ^6-sulfaneyl)phenyl)pyrimidin-1(6H)-yl)acetamide], the IC50 is below 100 nM.

In the case of `O=C(Cn1c(-c2ccc(C(F)(F)F)cc2)ncc(NCc2ccc3oc4ccccc4c3c2)c1=O)NCc1cc2cnccc2[nH]1` [Compound 135, N-((1H-pyrrolo[3,2-c]pyridin-2-yl)methyl)-2-(5-((dibenzo [b,d]furan-2-ylmethyl)amino)-6-oxo-2-(4-(trifluoromethyl)-phenyl)pyrimidin-1(6H)-yl)-acetamide], the 50% inhibitory concentration (IC50) is below 100 nM.

As for `C[C@@H](Nc1cnc(-c2ccccc2F)n(CC(=O)NCc2cc3cnccc3[nH]2)c1=O)c1ccc2oc3c(F)cccc3c2c1` [Compound 318, (R)—N-((1H-Pyrrolo[3,2-c]pyridine-2-yl)methyl)-2-(5-((1-(6-fluorodibenzo[b,d]furan-2-yl)ethyl)amino)-2-(2-fluorophenyl)-6-oxopyrimidin-1(6H)-yl)acetamide], the IC50 was below 100 nM.

`O=C(Cn1c(-c2ccccc2)ncc(NCc2ccc3c(c2)oc2ccccc23)c1=O)NCc1cc2cnccc2[nH]1` [Compound 26, N-((1H-pyrrolo[3,2-c]pyridin-2-yl)methyl)-2-(5-((dibenzo[b,d]furan-3-ylmethyl)amino)-6-oxo-2-phenylpyrimidin-1(6H)-yl)acetamide]: the IC50 was below 100 nM.

Turning to `C[C@@H](Nc1ncc(N2CCOCC2)n(CC(=O)NCc2cc3cnccc3[nH]2)c1=O)c1ccc2oc3ccccc3c2c1` [Compound 407, (R)—N-((1H-pyrrolo[3,2-c]pyridine-2-yl)methyl)-2-(3-((1-(dibenzo[b,d]furan-2-yl)ethyl)amino)-6-morpholino-2-oxopyrazin-1(2H)-yl)acetamide], the IC50 was below 100 nM.

Turning to `C[C@@H](Nc1ncc(-c2ccccc2F)n(CC(=O)NCc2cc3cnccc3[nH]2)c1=O)c1ccc2oc3ccccc3c2c1` [Compound 322, (R)-N-((1H-pyrrolo[3,2-c]pyridin-2-yl)methyl)-2-(3-((1-(dibenzo[b,d]furan-2-yl)ethyl)-amino)-6-(2-fluorophenyl)-2-oxopyrazin-1(2H)-yl)acetamide], the concentration for half-maximal inhibition (IC50) is below 100 nM.

For the compound `C[C@@H](Nc1cnc(-c2ccccc2F)n(CC(=O)NCc2cc3cnccc3[nH]2)c1=O)c1cc2c(cc1F)oc1ccccc12` [Compound 396, (R)-N-((1H-pyrrolo[3,2-c]pyridin-2-yl)methyl)-2-(5-((1-(3-fluorodibenzo[b,d]furan-2-yl)ethyl)amino)-2-(2-fluoro-phenyl)-6-oxopyrimidin-1(6H)-yl)acetamide], the IC50 is below 100 nM.

For `O=C(Cn1c(-c2ccccc2)ncc(NC(=O)c2ccc3oc4ccccc4c3c2)c1=O)NCc1cc2cnccc2[nH]1` [Compound 97, N-(1-(2-(((1H-pyrrolo[3,2-c]pyridin-2-yl)methyl)amino)-2-oxoethyl)-6-oxo-2-phenyl-1,6-dihydropyrimidin-5-yl)dibenzo [b,d]furan-2-carboxamide], the IC50 was below 100 nM.

The record behind these values is patent US20260184707A1, “PHARMACEUTICAL COMPOUNDS FOR THE TREATMENT OF COMPLEMENT MEDIATED DISORDERS” (ALEXION PHARMACEUTICALS, INC., priority 2022, published 2026).
